Test results: patent publication US20150110907A1, “METHOD OF TESTING THE ACTIVITY OF A POTENTIALLY ACTIVE SUBSTANCE TO INHIBIT THE ENZYMATIC ACTIVITY OF PHOSPHOLIPASE A2” (BASF Beauty Care Solutions France S.A.S., priority 2002, published 2015)
Read-outs that look alike come from different tables or passages of the source.

Target: T1, PLA2 of type I originating from pig pancreas (Sus scrofa, UniProt P00592)
T1 construct: originates from pig pancreas (enzyme of type I); from tissue; host or cells: pig pancreas
Experiment: Acellular in vitro inhibition of PLA2 of type I, determination of free fatty acids
Type: biochemical
Conditions: for Inhibition (%) Product diluted at 1/100 in demineralized water: initial solution diluted at 1/100 in demineralized water; for inhibition at 1000 µM: 1 mM; for Inhibition by substance tested pure (%): percentage inhibition with respect to the control
Protocol: The study of the inhibition of phospholipase A2 (PLA2) is carried out in an acellular in vitro model which aims to be a reflection, near as possible, of the situation encountered in vivo.
The PLA2s of type I and of type II are used in vitro, in a model comprising: • 1) a substrate selected from the ester derivatives of arachidonic acid (such as β-arachidonoyl γ-palmitoyl L-α-phosphatidylcholine, which is a phospholipid containing arachidonic acid in SN2 position, site hydrolyzed by the phospholipase A2) which specifically is the fatty add involved in the synthesis of the mediators of the inflammation, • 2) a bivalent ion, playing the role of catalyst (such as calcium), • 3) an activator, which is indispensable for the activity of the enzyme, playing the role of solubilizer of the substrate in the reaction medium and enabling promoting the enzyme-substrate interaction (preferably sodium deoxycholate).
The enzyme in the presence of its cofactor is incubated for a determined period of time (e.g. about 15 minutes) with the inhibitor, and then a second incubation is carried out for (e.g. about 20 minutes) in the presence of the substrate which is preferably β-arachidonoyl γ-palmitoyl L-α-phosphatidylcholine and of the activator, which is preferably sodium deoxycholate.
At the end of this incubation, a determination of the non-esterified fatty acids is made on the reaction medium by an enzymatic technique that it is for example possible to follow by colorimetry at a defined wavelength.
In parallel, a control corresponding to the activity of the phospholipase A2 in the absence of inhibitor is carried out.
The PLA2 in aqueous solution (35 Units/ml), is placed in the presence of 3 mM β-arachidonoyl γ-palmitoyl L-α-phosphatidylcholine, which is a phospholipid containing, in SN2 position, site hydrolyzed by the phospholipase A2, arachidonic add, which is specifically an important fatty acid involved in the synthesis of the mediators of inflammation,
a) the enzyme in the presence of the cofactor (calcium) is incubated for 15 minutes at ambient temperature (20° C.) with the inhibitor;
b) then, a second incubation of 20 minutes is made in the presence of β-arachidonoyl γ-palmitoyl L-α-phosphatidylcholine (3 mM) and sodium deoxycholate (1.6 mM).
At the end of this incubation, a determination of the free fatty acids, thus non-esterified free fatty acids, is made on the reaction medium by a classical enzymatic technique which is well-known to the person skilled in the art, that it is possible to follow by colorimetry, e.g. here at 550 nm,
The anti-PLA2 activity of increasing concentrations of the product selected was measured over three different batches of starting material. Each determination was made in triplicate, […]

[1] = non-diluted, initial concentrations: aristolochic acid 2 mM, p-bromophenacyl bromide 10 mM, nordihydroguaiaretic acid 5 mM
[2] = Table VII, read-out: percentage inhibition with respect to control
[3] = Table VII, 10 mM, read-out: percentage inhibition with respect to control

T1 sequence (P00592 23-146): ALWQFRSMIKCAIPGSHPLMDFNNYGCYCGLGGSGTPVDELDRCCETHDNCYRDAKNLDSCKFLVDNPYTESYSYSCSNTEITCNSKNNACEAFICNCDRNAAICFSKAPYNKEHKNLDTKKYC

In the case of `COc1cccc2c1cc([N+](=O)[O-])c1c(C(=O)O)cc3c(c12)OCO3` [Aristolochic acid, 8-methoxy-6-nitrophenanthro(3,4-d)-1,3-dioxole-5-carboxylic acid], the “Inhibition (%) Product diluted at 1/100 in demineralized water” value is reported as 10.00% ± 3.4, the “Inhibition (%) Product diluted at 1/1000 in demineralized water” value (initial solution diluted at 1/1000 in demineralized water) is reported as 0.25% ± 0.5 and the “Inhibition (%) Non-diluted product” value [1] is reported as 96.2% ± 1.04.

Molecule `CC(=O)Oc1ccccc1C(=O)O` [Aspirin] has an inhibition at 1000 µM [2] of 3.5% and an inhibition at 10000 µM [3] of 7%.

With `C[C@]12CCC(=O)C=C1CC[C@@H]1[C@@H]2C(=O)C[C@@]2(C)[C@H]1CC[C@]2(O)C(=O)CO` [Cortisone] the “percentage inhibition with respect to control” value (Table VII, 10 mM) was 0%.

Molecule `O=C(O)Cc1ccccc1Nc1c(Cl)cccc1Cl` [Diclofenac] has an inhibition at 1000 µM [2] of 8% and an inhibition at 10000 µM [3] of 29.8%.

In the case of `C[C@]12CCC(=O)C=C1CC[C@@H]1[C@@H]2[C@@H](O)C[C@@]2(C)[C@H]1CC[C@]2(O)C(=O)CO` [Hydrocortisone], the inhibition at 10000 µM [3] is reported as 4.5%.

With `CC(C)Cc1ccc(C(C)C(=O)O)cc1` (centres unmarked) [Ibuprofen] the inhibition at 1000 µM [2] was 6.9% and the inhibition at 10000 µM [3] was 40.3%.

With `COc1ccc2c(c1)c(CC(=O)O)c(C)n2C(=O)c1ccc(Cl)cc1` [Indomethacin] the inhibition at 1000 µM [2] was 0% and the inhibition at 10000 µM [3] was 25.7%.

Work on `C[C@]12C=CC(=O)C=C1CC[C@@H]1[C@@H]2[C@@H](O)C[C@@]2(C)[C@H]1CC[C@]2(O)C(=O)CO` [Prednisolone] yielded an inhibition at 10000 µM [3] of 6.3%.

In the case of `O=c1c(-c2ccc(O)cc2)coc2cc(O)cc(O)c12` [genistein], the “inhibition of the PLA2” value (commercial 1% genistein solution) is reported as 28.79%.

For `CC(Cc1ccc(O)c(O)c1)C(C)Cc1ccc(O)c(O)c1` (centres unmarked) [nordihydroguaiaretic acid], the “Inhibition (%) Product diluted at 1/100 in demineralized water” value was 8.8% ± 0.8 and the “Inhibition (%) Non-diluted product” value [1] was 97.3% ± 13.2.

With `O=C(CBr)c1ccc(Br)cc1` [p-bromophenacyl bromide] the “Inhibition (%) Product diluted at 1/100 in demineralized water” value was 4.5% ± 2.3 and the inhibition at 10000 µM (non-diluted, initial concentrations: aristolochic acid 2 mM, p-bromophenacyl bromide 10 mM, nordihydroguaiaretic acid 5 mM, read-out: Inhibition (%) Non-diluted product) was 29.9%.

With Magnesium gluconate the “Inhibition by substance diluted at 1% in demineralized water (%)” value was 0% and the “Inhibition by substance tested pure (%)” value was 3.4%.

With Zinc gluconate the “Inhibition by substance diluted at 1% in demineralized water (%)” value was 12.6% and the “Inhibition by substance tested pure (%)” value was 50%.
